{
  "source": "patent US20190136188A1",
  "about": "“4HPR AND ITS USE IN THE CULTURING OF HEMATOPOIETIC STEM CELLS” (UNIVERSITY HEALTH NETWORK, priority 2016, published 2019)",
  "key": {"[1]": {"system": "long-term repopulating cell (LTRC) in NSG mice", "assay": "Serial (secondary) transplantation limiting dilution analysis, LTRC frequency", "format": "in vivo", "from_the_text": "(A) Experimental scheme (B) Representative FACS analysis data of in vitro culture for 16 HSC dose time course (n=3). The number of (C) viable cells, (D) CD15+ myeloid cells, (E) GlyA+ erythroid cells, and (F) CD34+ primitive cells measured for the 16 LTRC dose with HTS flow cytometry analysis at day 8 post-treatment for vehicle control or 4HPR prior to xenotransplantation (n=5 biological replicates, 4 in technical triplicate, marked with different symbols). (G) Human CD45+ engraftment at 16 weeks post transplant in injected femur (n=4, 5 mice/biological experiment). Lineage analysis of control or 4HPR transplanted mice from FIG. 5G for (H) B lymphoid, (I) myeloid, (J) erythroid, and (K) primitive CD34+ at the 16 LTRC dose. (L) CD45+ cells were isolated from 5 biological experiments of the 16 LTRC dose primary mice and transplanted at limiting doses into secondary recipients for 16 weeks. Human CD45+ marking of >0.1% was considered positive for secondary engraftment. Limiting dilutation analysis was performed using ELDA software and the long-term repopulating cell (LTRC) frequency for each biological replicate plotted and the average LTRC frequency calculated.\n(A) The number of cells following 8 days of ex vivo culture at the 16 LTRC dose grown as in FIG. 5A for the indicated drug treatments (n=2). […] (2 biological replicates) (E) CD45+ cells were isolated from 2 biological experiments of the 16 LTRC dose primary mice and transplanted at limiting doses into secondary recipients for 16 weeks. Human CD45+ marking of >0.01% was considered positive for secondary engraftment. Limiting dilutation analysis was performed using ELDA software and the long-term repopulating cell (LTRC) frequency for each biological replicate plotted and the average LTRC frequency calculated.\nTo determine if 4HPR preserves functional HSC in CB liquid culture, we devised an experimental protocol to test the effect of 4HPR treatment in short-term ex vivo expansion culture on repopulation in serial NSG xenotransplantation to functionally read out LT-HSC (FIG. 5A). […]"}, "[2]": {"system": "CD34+CD38- (stem) and CD34+CD38+ (prog) cells", "assay": "LC3II immunofluorescence with and without Baflomycin A1 (autophagy)", "format": "cell-based, human", "conditions": "day 2, 2 uM 4HPR, in the presence of BAF; stem vs prog", "method": "(A) Representative mmunofluorescence images taken by confocal microscopy for DAPI (blue) and LC3II staining (green) for CD34+CD38− cells (stem) following 2 days of treatment with DMSO control or 2 uM 4HPR with and without the autophagy inhibitor baflomycin A1 (BAF) to assay for basal autophagy and autophagic flux. (B) Quantitation of LC3II foci area as a percentage of total cell area for stem and prog (CD34+38+) cells from three independent CB using R and Image J software. (C) LCII foci area is increased with 4HPR treatment relative to control in the presence of BAF only in stem populations and not Prog populations. (D) Representative flow cytometry histogram plot of cyto-ID fluorescence intensity of control (black) and 4HPR (green) treated stem cells to assay for autophagic flux. Lower mean fluorescence intensity (MFI) indicates more turnover of autophagosomes and thus increased autophagic flux. […] (F) Cytokine withdrawal for 3 hours activates autophagic flux in CB stem cells to similar levels as 2 uM 4HPR as assayed by cyto-ID flow cytometry at day 2 post-treatment (n=3).\nWe hypothesize that such selective enhancement of CFC cloning efficiency with 4HPR treatment is a result of activating autophagy in HSC in human CB. Warr et all had previously shown that mouse HSC, but not comitted progenitors activate autophagy under stress stimuli. […]"}, "[3]": {"system": "HSPC subpopulations including HSC, MPP and GMP", "assay": "BrdU incorporation (proliferation rate)", "format": "cell-based, human", "conditions": "2 uM 4HPR, day 3 post-treatment"}, "DEGS1": {"system": "DEGS1", "conditions": "prolong exposure at micromolar concentrations in vitro; cited from earlier work"}},
  "data": [
    {"molecule": "CC1=C(/C=C/C(C)=C/C=C/C(C)=C/C(=O)Nc2ccc(O)cc2)C(C)(C)CCC1", "note": "[4HPR, N-(4hydroxyphenyl)retinamide]", "values": [
      {"measurement": "frequency of LT-HSC", "setting": "[1]; 4HPR added to SR1+UM171 treatment compared to SR1+UM171 treatment alone", "value": "doubled"},
      {"measurement": "average LTRC frequency", "setting": "[1]; 4HPR treated cells, through 32 weeks of xenotransplantation", "value": "1e6", "unit": "CD45+ cells"},
      {"measurement": "increase in SRC over control treatment", "setting": "[1]; through 32 weeks of xenotransplantation, n=5, p=0.02", "value": 3, "unit": "fold"},
      {"measurement": "LC3II foci area relative to ctrl (upregulation of autophagy)", "setting": "[2]", "value": "only 4HPR-treated stem cells, but not prog cells exhibit an upregulation of autophagy"},
      {"measurement": "proliferation rate by BrdU incorporation", "setting": "[3]", "value": "decreased proliferation rate"},
      {"measurement": "DEGS1 activity", "setting": "DEGS1", "value": "irreversibly inhibits DEGS1 activity"}
    ]}
  ]
}
